Assay results: patent publication US12612410B2 (CHILDREN'S HOSPITAL MEDICAL CENTER, priority 2020, dated 2026)
pKd: −log10 of the molar value.

Biological target: T1, FLT3 K663Q (Homo sapiens, UniProt P36888, K663Q)
T1 construct: host or cells: E. coli BL21-derived host (T7 phage) or HEK-293
T1 sequence (P36888 27-993 K663Q): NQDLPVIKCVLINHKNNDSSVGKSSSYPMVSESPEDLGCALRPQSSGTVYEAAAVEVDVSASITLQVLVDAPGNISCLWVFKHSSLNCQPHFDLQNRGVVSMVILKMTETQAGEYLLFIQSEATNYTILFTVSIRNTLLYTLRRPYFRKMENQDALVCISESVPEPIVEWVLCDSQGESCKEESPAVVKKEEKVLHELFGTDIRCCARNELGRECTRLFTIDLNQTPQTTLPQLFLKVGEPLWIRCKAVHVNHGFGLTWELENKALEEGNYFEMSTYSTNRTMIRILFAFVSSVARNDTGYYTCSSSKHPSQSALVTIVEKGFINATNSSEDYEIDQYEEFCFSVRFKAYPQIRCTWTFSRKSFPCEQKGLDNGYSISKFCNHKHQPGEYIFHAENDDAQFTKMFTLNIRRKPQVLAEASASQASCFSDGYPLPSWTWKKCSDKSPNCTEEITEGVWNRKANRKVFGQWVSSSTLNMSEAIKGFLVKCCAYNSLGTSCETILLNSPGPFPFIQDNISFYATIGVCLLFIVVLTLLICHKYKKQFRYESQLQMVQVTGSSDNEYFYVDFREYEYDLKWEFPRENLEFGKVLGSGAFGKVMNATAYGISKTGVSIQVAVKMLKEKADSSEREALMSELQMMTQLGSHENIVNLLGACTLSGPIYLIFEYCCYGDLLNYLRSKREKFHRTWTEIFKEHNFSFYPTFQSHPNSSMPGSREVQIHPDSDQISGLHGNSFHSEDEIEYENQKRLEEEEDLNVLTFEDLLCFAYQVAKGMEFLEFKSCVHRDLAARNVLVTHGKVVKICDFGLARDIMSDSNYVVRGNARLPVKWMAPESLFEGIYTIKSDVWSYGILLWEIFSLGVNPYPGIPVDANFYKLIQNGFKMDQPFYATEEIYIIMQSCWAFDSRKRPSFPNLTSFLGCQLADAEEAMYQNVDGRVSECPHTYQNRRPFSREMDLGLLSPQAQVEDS
Assay: DiscoverX KINOMEscan competition binding, FLT3 K663Q
Excerpt: Kinase binding data were obtained for various exemplary compounds prepared according to Examples 1-24 using the DiscoverX KINOMVIEscan® active site-directed competition binding site-directed assay protocol described below. […] As a result, the data report thermodynamic interaction affinities (Kd values), rather than IC50 values that are dependent on ATP concentrations. The assay uses a DNA-tagged version of the protein kinase, and an immobilized ligand bound to a solid support. Compounds that directly or indirectly prevent kinase binding to the immobilized ligand reduce the amount of kinase captured on the solid support, which is detected using an ultra-sensitive qPCR method. Affinity constants reported from the assay have been reported to be independent of the immobilized ligand used that is coupled to the solid support (See supplemental information in Fabian, M. A. et. al., (2005) Nat. Biotechnol. 23, 329-336; Wodicka, L. M. et. al., (2010) Chem. Biol. 17, 1241-1249.)
Kinase-tagged T7 phage strains were prepared in an E. coli host derived from the BL21 strain. E. coli were grown to log-phase and infected with T7 phage and incubated with shaking at 32° C. until lysis. The lysates were centrifuged and filtered to remove cell debris. The remaining kinases were produced in HEK-293 cells and subsequently tagged with DNA for qPCR detection. Streptavidin-coated magnetic beads were treated with biotinylated small molecule ligands for 30 minutes at room temperature to generate affinity resins for kinase assays. The liganded beads were blocked with excess biotin and washed with blocking buffer (SeaBlock (Pierce), 1% BSA, 0.05% Tween 20, 1 mM DTT) to remove unbound ligand and to reduce non-specific binding. Binding reactions were assembled by combining kinases, liganded affinity beads, and test compounds in 1× binding buffer (20% SeaBlock, 0.17×PBS, 0.05% Tween 20, 6 mM DTT). Test compounds were prepared as 111× stocks in 100% DMSO. Kds were determined using an 11-point 3-fold compound dilution series with three DMSO control points. All compounds for Kd measurements are distributed by acoustic transfer (non-contact dispensing) in 100% DMSO. The compounds were then diluted directly into the assays such that the final concentration of DMSO was 0.9%. All reactions were performed in polypropylene 384-well plates. Each was a final volume of 0.02 mL. The assay plates were incubated at room temperature with shaking for 1 hour and the affinity beads were washed with wash buffer (1×PBS, 0.05% Tween 20). The beads were then re-suspended in elution buffer (1×PBS, 0.05% Tween 20, 0.5 μM nonbiotinylated affinity ligand) and incubated at room temperature with shaking for 30 minutes. The kinase concentration in the eluates was measured by qPCR.
Binding constants (Kds) were calculated with a standard dose-response curve using the Hill equation. The Hill Slope was set to −1. Curves were fitted using a non-linear least square fit with the Levenberg-Marquardt algorithm.

Compound | pKd
CC1(c2cn3c(-c4cccc(N[C@H]5CNC[C@@H]5F)n4)cnc3cn2)CC1 [Compound 1, N-((3S,4S)-4-fluoropyrrolidin-3-yl)-6-(6-(1-methylcyclopropyl)imidazo[1,2-a]pyrazin-3-yl)pyridin-2-amine] | 9.62
FC(F)c1cn2c(-c3cccc(N[C@H]4CNC[C@@H]4F)n3)cnc2cn1 [Compound 16, 6-(6-(difluoromethyl)imidazo[1,2-a]pyrazin-3-yl)-N-((3S,4S)-4-fluoropyrrolidin-3-yl)pyridin-2-amine] | 8.85
FC(F)c1cn2c(-c3cccc(N[C@H]4CNCC[C@@H]4F)n3)cnc2cn1 [Compound 25, 6-(6-(difluoromethyl)imidazo[1,2-a]pyrazin-3-yl)-N-((3S,4S)-4-fluoropiperidin-3-yl)pyridin-2-amine] | 9.23
CC1(c2cn3c(-c4cccc(N[C@H]5CNCC56CC6)n4)cnc3cn2)CC1 [Compound 5, (R)-N-(6-(6-(1-methylcyclopropyl)imidazo[1,2-a]pyrazin-3-yl)pyridin-2-yl)-5-azaspiro[2.4]heptan-7-amine] | 9.74
CC(C)(O)c1cn2c(-c3cccc(N[C@@H]4CCCNC4)n3)cnc2cn1 [Compound 30, (R)-2-(3-(6-(piperidin-3-ylamino)pyridin-2-yl)imidazo[1,2-a]pyrazin-6-yl)propan-2-ol] | 9.08

Continued by rising pKd, values first:

pKd | Compound
8.62 | CC(C)(O)c1cn2c(-c3cccc(N[C@H]4CNCC[C@@H]4F)n3)cnc2cn1 [Compound 31, 2-(3-(6-(((3S,4S)-4-fluoropiperidin-3-yl)amino)pyridin-2-yl)imidazo[1,2-a]pyrazin-6-yl)propan-2-ol]
8.64 | FC(F)(F)COc1cn2c(-c3cccc(N[C@@H]4CCNC4)n3)cnc2cn1 [Compound 38, (R)-N-(pyrrolidin-3-yl)-6-(6-(2,2,2-trifluoroethoxy)imidazo[1,2-a]pyrazin-3-yl)pyridin-2-amine]
9.09 | Cn1cc(-c2cn3c(-c4cccc(N[C@H]5CNC[C@@H]5F)n4)cnc3cn2)cn1 [Compound 52, N-((3S,4S)-4-fluoropyrrolidin-3-yl)-6-(6-(1-methyl-1H-pyrazol-4-yl)imidazo[1,2-a]pyrazin-3-yl)pyridin-2-amine]
9.35 | FC(F)(F)C1(c2cn3c(-c4cccc(N[C@@H]5CCNC5)n4)cnc3cn2)CC1 [Compound 10, (R)-N-(pyrrolidin-3-yl)-6-(6-(1-(trifluoromethyl)cyclopropyl)imidazo[1,2-a]pyrazin-3-yl)pyridin-2-amine]
9.41 | F[C@H]1CNC[C@@H]1Nc1cccc(-c2cnc3cnc(C4CC4)cn23)n1 [Compound 50, 6-(6-cyclopropylimidazo[1,2-a]pyrazin-3-yl)-N-((3S,4S)-4-fluoropyrrolidin-3-yl)pyridin-2-amine]
9.66 | CC1(c2cn3c(-c4cccc(N[C@@H]5CCNC5)n4)cnc3cn2)CC1 [Compound 3, (R)-6-(6-(1-methylcyclopropyl)imidazo[1,2-a]pyrazin-3-yl)-N-(pyrrolidin-3-yl)pyridin-2-amine]
